The record followed here is the METLIN SMRT retention time set (Domingo-Almenara et al. 2019).

The data set in a line: gradient 5% acetonitrile 3 min, to 50% in 2 min, to 85% in 15 min, held 3 min, 100 µL/min. The following applies: column: Zorbax Extend-C18 2.1 x 50 mm; eluents: water / acetonitrile, 0.1% formic acid. In short, it runs like this: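 Each retention time is based on an adduct peak selected computationally and verified by manual inspection. Measurements used HPLC–quadrupole time-of-flight mass spectrometry in positive and negative ionization mode on mixtures of ~100 pure standards. Chromatography ran on a Zorbax Extend-C18 column (2.1 × 50 mm, 1.8 μm) at 100 μL/min with water and acetonitrile, each containing 0.1% formic acid, and dead and dwell volumes of 40 μL and 900 μL.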
Consider `CCN1CCCn2nc(C3CCN(C(=O)COc4ccccc4)CC3)cc2C1=O`, for which the RP-LC retention time amounted to 678 s.
In the case of `COC(=O)c1cccc(NC(=O)c2cnc3c(c2)c(=O)n(C)c(=O)n3-c2ccccc2)c1` it was 874 s; in that of `Cc1ccc(S(=O)(=O)N2CCN(CCc3cn(C)c4ncccc34)CC2)cc1`, 632 s; in that of `Fc1ccc(Cc2nc3nccc(-c4cc5ccccc5o4)n3n2)cc1`, 1130 s.
In the case of `Cc1cccc(-c2nc(C3CC(=O)N(c4ccc(Cl)cc4)C3)no2)c1` (centres undefined) it was 1110 s.
`COc1cccc(-n2c(N3CCCC(C(=O)NCc4ccccc4)C3)nc3ccsc3c2=O)c1` (centres undefined) returned an RP-LC retention time of 859 s.
The result for `CCCNC(=O)C1CCN(c2nc3ccc(-c4cccs4)nc3s2)CC1` reads 872 s; that for `O=C(COC(=O)c1cccc([N+](=O)[O-])c1)c1ccc(NC(=O)c2ccccc2)cc1`, 921 s; that for `COc1ccc(-n2c(=O)c(C(=O)NCC(C)C)c(O)c3cccnc32)cc1`, 1160 s.
The result for `O=C(NCCc1c[nH]c2ccc(Cl)cc12)c1cccc(NC(=O)c2nnc(C3CC3)s2)c1` reads 928 s.
In the case of `Cc1ccccc1OCC(=O)N1CCC2(CC1)NC(=O)N(Cc1ccccc1Cl)C2=O` it was 909 s; in that of `Cc1cccc(N(C)C(=O)Cn2nc3nc(N4CCCC(C)C4)ccn3c2=O)c1` (centres undefined), 808 s.
In turn, `COCCNC(=O)C1CN(S(=O)(=O)c2ccccc2)CC12CCCCC2` (centres undefined) displayed an RP-LC retention time of 811 s.
In the case of `CNCC[C@H](Oc1cccc2ccccc12)c1cccs1` it was 788 s; in that of `O=C(Cn1ncn2nc(-c3ccccc3)cc2c1=O)NCCCN1CCCC1`, 602 s; in that of `O=C(NCC1CCCO1)C1CCN(c2ccc(=O)n(-c3cccc(Cl)c3)n2)CC1` (centres undefined), 721 s.
As to `O=C(NCc1ccc2c(c1)OCO2)C1CCN(C(=O)c2ncn3c2COC(c2ccccc2)C3)CC1` (centres undefined), the RP-LC retention time is 752 s.
In the case of `O=C(c1cccn1Cc1noc(-c2ccc(Cl)cc2)n1)N1CCCC1` it was 1020 s.
`CCn1ccc2cc(S(=O)(=O)N3CCCC(C(=O)NCCc4ccco4)C3)ccc21` (centres undefined) showed an RP-LC retention time of 925 s.
In turn, `COC(=O)Cn1c(-c2ccccc2)cnc1SCC(=O)Nc1nccs1` returned an RP-LC retention time of 671 s.
In turn, `Cc1ccsc1C(=O)N1CCC2(CC1)N=C(c1cccc(Br)c1)NO2` had an RP-LC retention time of 922 s.
`Cc1ccccc1C(=O)Nc1nc(-c2ccc3c(c2)N(C)C(=O)CO3)c(C)s1` displayed an RP-LC retention time of 1050 s.
The result for `Cc1nc(-c2ccc(S(=O)(=O)N3CCN(c4ccc(N5CCOCC5)nn4)CC3)cc2)co1` reads 644 s.
The result for `O=C(Cn1cccc1-c1nnc(-c2ccccc2)o1)N1CCN(Cc2ccc3c(c2)OCO3)CC1` reads 709 s; that for `Cc1nnsc1C(=O)Nc1nnc(SCc2ccc(Cl)c(Cl)c2)s1`, 1020 s.
The result for `CC(=O)Nc1nnc(SCc2cc(=O)c(OC(=O)c3ccccc3Cl)co2)s1` reads 699 s; that for `O=C(OCCc1ccccn1)c1cn(-c2ccccc2)c(=O)c2ccccc12`, 696 s.
In turn, `CC(C)OCCCNC(=O)C1CCCN(c2ccc(-c3ccccc3)nn2)C1` (centres undefined) registered an RP-LC retention time of 683 s.
In the case of `Cc1cccc(NC(=O)C2CCN(S(C)(=O)=O)c3ccccc3O2)c1C` (centres undefined) it was 844 s; in that of `COc1cccc(Cn2ccc3ccn(CCN(C)C)c3c2=O)c1`, 639 s; in that of `COc1cc(N2C=C(C(=O)N3CCCC3)S(=O)(=O)c3ccccc32)cc(OC)c1OC`, 753 s.
Take `COc1ccc(-c2nc3cc(C)ccn3c2NC(=O)COc2ccc(Cl)cc2)cc1`: the RP-LC retention time worked out at 729 s.
As for `Cc1nn(-c2nc(-c3ccc(Cl)cc3)cs2)c(C)c1CC(=O)NCc1ccccc1`, the RP-LC retention time came to 1170 s.
Consider `CC1CCN(S(=O)(=O)c2ccc(C(=O)Nc3nc4c(s3)CCc3ccccc3-4)cc2)CC1`, for which the RP-LC retention time stood at 1290 s.
Consider `Cc1oc(-c2ccc(Cl)cc2)nc1Cn1nnc(C(=O)Nc2cc(F)ccc2F)c1C`, for which the RP-LC retention time amounted to 1310 s.
The result for `Cc1nc2c(NC(=O)c3ccccn3)cccn2n1` reads 763 s; that for `CN(C)CCNC(=O)c1ccc(Nc2c(-c3ccccc3)nc3cnccn23)cc1`, 586 s.
`Cc1nc2cc(-c3noc(Cc4cccc(C(F)(F)F)c4)n3)ccc2o1` had an RP-LC retention time of 1080 s.
In the case of `CCN1CCN(C(=O)CN2C(=O)COc3ccc(C(=O)N(CC)CC)cc32)CC1` it was 581 s.
For `Cc1ccc2[nH]cc(CCN3CC(C(=O)Nc4ccc(F)cc4F)CC3=O)c2c1` (centres undefined), the RP-LC retention time was determined as 835 s.
The result for `O=C(Nc1cccc(Br)c1)N1CCC(n2cnc3cccnc32)CC1` reads 660 s; that for `CC(C)N1CCn2cc(S(=O)(=O)NCc3ccc(F)cc3F)cc2C1=O`, 763 s; that for `CC1(c2nc(C3CC3)no2)CCCN(C(=O)c2ccc3nc[nH]c3c2)C1` (centres undefined), 595 s.
Consider `Cc1cc(NC(=O)Cc2csc(NC(=O)c3ncccn3)n2)no1`, for which the RP-LC retention time stood at 591 s.
The result for `CCn1cc(-c2nc(C)c(C(=O)NCc3ccc(C)o3)s2)c2cccnc21` reads 912 s; that for `O=C(Nc1ccc2c(c1)OCCO2)c1coc2ccccc12`, 826 s.
The result for `CCOC(=O)c1nc(N2CCN(c3cccc(C(F)(F)F)c3)CC2)c2ccccc2n1` reads 1070 s; that for `COc1ccccc1C(=O)N1CCC2(CC1)NC(=O)c1cc(F)ccc1N2C`, 752 s; that for `Cc1nccn1Cc1nc(-c2cccc(F)c2)no1`, 607 s.
`CN(C)C(=O)c1ccc(N2CCc3ccccc32)s1` displayed an RP-LC retention time of 907 s.
The result for `COCCN1C(=O)CC[C@]2(C(=O)N(C)CCc3ccccn3)CCCC[C@@H]12` reads 546 s; that for `CCOc1ccc(S(=O)(=O)NCCn2nc(C)cc2C)cc1F`, 731 s.
`COc1cc(OC)c(NC(=O)N(C)CCc2noc(-c3ccccc3)n2)cc1Cl`: the RP-LC retention time worked out at 946 s.
`CCn1nccc1C(=O)NC1CCN(c2ncnc3c2CCC3)C1` (centres undefined) gave an RP-LC retention time of 585 s.
In the case of `O=C(CN1C(=O)CCC1=O)NCC(O)C1CCCCC1` (centres undefined) it was 597 s; in that of `Cc1cc(F)cc2c(=O)c3c([nH]c12)CCN(CC(=O)Nc1ccccc1)C3`, 616 s.
The compound `Cc1ccc(C(=O)Nc2nc(-c3ccc(C(C)(C)C)cc3)cs2)cc1` yielded an RP-LC retention time of 1370 s.
The result for `O=C(NC1CC1)[C@@H]1C[C@H](Oc2ccccc2)CN1C(=O)c1ccc2ncccc2c1` reads 649 s.
For the compound `Cc1ccccc1-c1noc(Cn2c(=O)n(-c3cccc(F)c3)c(=O)c3sccc32)n1`, the RP-LC retention time came to 1030 s.
In the case of `O=C(Cn1nc2n(c1=O)CCCCC2)NCc1ccc(Cl)cc1` it was 702 s; in that of `Cc1ccc(CNC(=O)N2CCC(n3c(-c4ccco4)nc4cccnc43)C2)cc1` (centres undefined), 762 s; in that of `COc1ccc(C(=O)Cn2nc3n(CC(C)C)c(=O)c4ccccc4n3c2=O)cc1OC`, 951 s.
The result for `COc1ccc2[nH]c(=O)c(CCC(=O)NCC(C)C)cc2c1` reads 660 s; that for `CC(C)OCCCNC(=O)CCc1nnc2c3cc(-c4ccccc4)nn3ccn12`, 690 s.
In the case of `CC(C)c1ccc(S(=O)(=O)c2cnc(N3CCN(C4CCCCC4)CC3)nc2N)cc1` it was 767 s; in that of `O=C(CSc1ccc(N2CCCC(C(=O)NC3CC3)C2)nn1)NCc1ccccc1` (centres undefined), 603 s; in that of `COc1ccc(C)cc1Nc1ncnc(N)c1[N+](=O)[O-]`, 780 s.
For `CCOc1ccc(N2C=C(C(=O)OC)S(=O)(=O)c3cc(F)ccc32)cc1`, the RP-LC retention time is 924 s.
In the case of `Cc1noc(-c2cccn2Cc2ccc(Cl)cc2)n1` it was 1090 s; in that of `CCNc1cc(N2CCC(CCC(=O)NC(C)C)CC2)ncn1`, 598 s.
The result for `CCCS(=O)(=O)N1CCCN(C2=NS(=O)(=O)C(c3cccc(Cl)c3)=C2C)CC1` reads 891 s; that for `CC(=O)Nc1ccc(-c2nc3ccc(C)cc3s2)cc1`, 851 s.
As for `Cc1nn(CC(=O)N2CCC(C)CC2)c(=O)c2c(-n3cccc3)n(-c3ccc(Cl)cc3)nc12`, the RP-LC retention time was found to be 1130 s.
In the case of `COc1ccc2[nH]cc(CCn3ccc4c(cnc5nc(-c6ccc(Cl)cc6)nn54)c3=O)c2c1` it was 990 s; in that of `CCCc1ccc(S(=O)(=O)N2CCc3c(c(-c4nnc(-c5ccccc5F)o4)nn3C)C2)cc1`, 1070 s; in that of `O=C(NCc1ccccc1F)c1cn2cc(Cl)ccc2n1`, 723 s.
With `CCCn1c(=O)c2c(C(=O)NCc3ccc(Cl)cc3)cc(=O)n(CCC)c2n(C)c1=O`, the RP-LC retention time is 1060 s.
In the case of `O=C(O)c1cc2cc(Cl)ccc2[nH]1` it was 740 s; in that of `CCCc1noc(-c2ccnc(-n3ncc(C(=O)Nc4ccc(Cl)cc4)c3C)c2)n1`, 1270 s.
